The values that follow come from PMC10384610, “Combining nonsense mutation suppression therapy with nonsense-mediated decay inhibition in neurofibromatosis type 1” (Molecular Therapy. Nucleic Acids, 2023).

The test system of one data set is NF1^NS/− Schwann cells. Nature of the data set: Western blot of neurofibromin and p-ERK in NF1^NS/− Schwann cells (LOH) treated with nonsense suppression drugs. The format is cell-based, minipig. To be noted: concentrations of Table S2, 24, 48 or 72 h. The method, then:
(§1) Schwann cells were isolated as previously described.[9]^,[18] Sciatic nerve or cutaneous neurofibroma were biopsied from WT or NF1^R1947/+ minipigs and transported in Dulbecco’s Modified Eagle’s Medium (DMEM; Thermo) containing 10% fetal bovine serum (FBS; Thermo) and 1% Antibiotic/Antimycotic (AA; Thermo). In a laminar flow hood, specimens were rinsed in 70% ethanol and phosphate-buffered saline (PBS; VWR 16750-078) by briefly dipping into each solution 10 times. Tissues were minced and incubated at 37°C, 5% CO2 in dissociation media containing DMEM with 10% FBS, 1% AA, 1x collagenase A (Thermo), and 1x dispase II (Roche) overnight in a Petri dish, then transferred to a conical and centrifuged at 270 × g for 5 min. Cells were plated onto a poly-L-lysine (0.05 mg/mL) and laminin-coated (10 μg/mL) six-well plate and cultured in complete media containing DMEM with high-glucose (GIBCO) supplemented with 10% FBS (GIBCO), forskolin (2 μM) (Calbiochem), 1% N2 supplement (Thermo), recombinant human neuregulin-b1 (NRG1) (10 ng/mL) (R&D Systems), and 1% AA. Media was replaced every 2 days. Schwann cells were separated from contaminating fibroblasts via magnetic cell selection, as described.[9]^,[18] Purified Schwann cells were expanded and stored in liquid nitrogen at low passage and vials were thawed immediately prior to use in experiments to maintain low-passage cells.
(§2) For extraction of protein from cells, snap frozen pellets were briefly thawed on ice and resuspended in RIPA buffer (Sigma) containing protease (Sigma) and phosphatase inhibitors (Sigma), then vortexed at 2,000 rpm at 4°C for 20 min, then centrifuged at 4°C for 15 min at 20,000 × g. For extraction of protein from tissues, snap frozen tissues were thawed briefly on ice, then 50 to 80 mg of tissue was transferred to a 2-mL microtube containing ceramic homogenizers (Agilent Technologies) and homogenized using a Bead Blaster (Benchmark Scientific) at 4,260 rpm, 7 m/s linear speed, 3 cycles of 30 s at 4°C. Homogenates were centrifuged at 13,000 rpm for 3 min at 4°C, then supernatants were transferred to new tubes and sonicated at an amplitude of 20A for 10 s at 4°C, vortexed at 2,000 rpm at 4°C for 20 min, then centrifuged at 20,000 × g at 4°C for 15 min.
(§3) Protein lysates from cells or tissues were quantified using a BCA assay (Thermo). Twenty to 30 μg of protein was denatured at 95°C for 5 min and separated by electrophoresis using SDS on 1.5-mm NuPAGE 4–12% Bis-Tris protein gels (Thermo). Protein was transferred to Immun-Blot PVDF Membrane (Bio-Rad) overnight (16–20 h) at 18 V, 4°C. Membranes were cut according to target molecular weights and blocked at room temperature (RT) for 1 h using 5% blocking grade buffer (Bio-Rad) in TBST (Tris-buffered saline, 0.1% Tween 20) (Sigma). Membranes were incubated with primary antibody overnight at 4°C and washed with TBST three times for 5 min at RT, then incubated with horseradish peroxidase-conjugated secondary antibody for 1 h at RT and washed again as described above. All washes and incubations were performed on a rocking platform. Blots were developed with the WesternBright Quantum Kit (Advansta). Bands were imaged using the Li-Cor Odyssey Fc Imaging System, quantified by densitometry, and normalized to HSP90.
Ataluren (MedChem Express) was reconstituted in sterile dimethyl sulfoxide (DMSO) to a stock concentration of 10 mM and stored at −80°C. Cells were seeded in complete media at a density of 0.3 × 10^6 cells/plate in 10-cm plates. Media was changed 24 h later to complete media without AA and containing vehicle or drugs at indicated concentrations. Cells were harvested 24, 48, and 72 h after drug treatment and divided for protein and/or RNA extraction.
For orientation: In western blotting, separated proteins are transferred to a membrane and probed.

A further data set deals with NF1^NS/+ Schwann cells. Nature of the data set: Western blot of neurofibromin and p-ERK in NF1^NS/+ Schwann cells treated with nonsense suppression drugs. It counts as cell-based, minipig. To be noted: for neurofibromin increase in NF1^NS/+ Schwann cell cultures: multiple concentrations (Table S2), 24, 48 or 72 h, 3 biological replicates. The method, then: as §1, §2, §3
Ataluren (MedChem Express) was reconstituted in sterile dimethyl sulfoxide (DMSO) to a stock concentration of 10 mM and stored at −80°C. […]

The test system of data set [1] is NF1^R1947∗ mutation dual luciferase reporter in iPNF95.6 cells. Nature of the data set: Dual luciferase reporter (DLR) readthrough assay in human Schwann cells. The format is cell-based. To be noted: human Schwann cells iPNF95.6, 48 h, normalized to Renilla. An excerpt: (§4) The NF1^R1497X DLR plasmid was kindly provided by David Bedwell at University of Alabama. The Renilla-NF1-R1947X-Firefly insert contains 30 nucleotides surrounding the premature termination codon in NF1-R1947X inserted between the Renilla and Firefly genes. The 30-base pair readthrough cassette contains NF1^R1497X (G TCGACGGATGCCAAATGACAAAGAGTTGGATCC). Plasmids were amplified in DH5a E. coli using ampicillin selection and purified using a Qiagen miniprep kit, according to the manufacturer’s protocol. To produce stable cell cultures, we used Gateway cloning to transfer the DLR insert to a hygromycin-resistant PiggyBac Sleeping Beauty (PBSB) transposon vector. Briefly, a GBlock containing the DLR insert sequence and attB sites was cloned into the pDONR221 vector using BP clonase to produce pENTR-Renilla-NF1-R1947X-Firefly. This was cloned into the PBSB vector using LR clonase to produce pPBSB-CG-Renilla-NF1-R1947X-Firefly-PGK-Hygro, which was confirmed by DNA sequencing. Schwann cells were grown to 80% confluency and transfected with the PBSB transposon and PB7 (PiggyBac transposase) (5 μg each/ 1million cells) using the Neon electroporation system (Invitrogen #MPK10096). […] The DLR assay system (Promega) was used to detect readthrough, according to the manufacturer’s instructions. Luminescence was measured using the Cytation 5 plate reader. […]
Background: A reporter such as luciferase makes a cellular process visible.

Data set [2] concerns NF1^R1947∗ mutation dual luciferase reporter in NF1^NS/− Schwann cells. In words: Dual luciferase reporter (DLR) readthrough assay in minipig Schwann cells. The format is cell-based. To be noted: minipig NF1^NS/− cNF Schwann cells, 48 h, normalized to Renilla.
Text: as §4

The conditions of data set [3]: murine models of DMD and CF, subcutaneous once daily 34 mg/kg, suppresses PTCs; cited from earlier work.
For data set [4] the following is noted: NF1 minipig (NF1^R1947*/+), in vivo, 30 min. The method, then:
Tissues were prepared with a homogenization solution containing collagenase.

Data set [5] deals with neurofibromin and p-ERK protein levels. In words: Pharmacodynamics: western blot of neurofibromin and p-ERK in NF1 minipig tissues. The note with it: treated (n = 5) vs untreated controls (n = 4), sc 8.25 mg/kg daily 14 days. The format is in vivo. An excerpt:
(§5) Tissue samples (skin, sciatic nerve, optic nerve, and cortex) were collected from each animal at the same approximate locations and divided for analysis.

For data set [6] the following is noted: human patients with DMD or CF, once daily intravenous infusion 7.5–10 mg/kg; cited from earlier work.
The nature of data set [7]: Tolerability and renal parameters in NF1 minipigs. It counts as in vivo, minipig. To be noted: sc 8.25 mg/kg once daily for 14 days.
The nature of the next data set: in vivo. The note with it: sc. The procedure: Human equivalent doses (HED) were determined by allometric scaling using the standard conversion coefficient (Km), where Km = 1.1 for minipig and HED determination. Consequently, a 7.5-mg/kg human equivalent dose was 8.25 mg/kg. The required volume of drug for each animal was then based on individual body weight and determined on the day of administration.
as §5
Plasma isolations were performed as described in a previous study.[10] Briefly, serial whole blood samples (1.5 mL) were collected from the jugular vein into lithium heparin vacutainer tubes. Samples were immediately transferred to a 1.7-mL microfuge tube and centrifuged at 2,000 × g for 10 min at 4°C. Supernatant (plasma) was transferred to a cryovial and stored at −80°C until analysis. […] Assay analytical measurement ranged from 0.2 to 12 mg/L, and samples with results higher than 12 mg/L were diluted appropriately and re-analyzed. Within-run precision is 0.3% CV, between-day precision is 0.4% CV, and accuracy is 99.8% (correlation coefficient). For each tissue type (skin, sciatic nerve, optic nerve, and cerebral cortex), samples were analyzed commercially using liquid chromatography with tandem mass spectrometry (LC-MS/MS; BioAgilytix, San Diego, CA). […] Standard curves and quality controls were prepared with untreated tissues. Tissues were prepared with a homogenization solution containing collagenase. […] The LC-MS/MS system consisted of a Waters Acquity UPLC (Milford, MA) coupled with a Waters Xevo TQ-S Micro Triple Quad mass spectrometer (Milford, MA). Mass transition data were acquired in electrospray positive ion (ESI^+) mode and captured using MassLynx 4.1 (Waters, Milford, MA).
Pharmacokinetic parameters and measures of systemic exposure included area under the concentration-time curve (AUC; linear up, log down), maximum concentration (Cmax), time to Cmax (Tmax), and half-life (t1/2).

On the set-up of data set [8]: method as in PMID 33978635. To be noted: NF1 minipigs compared with WT minipigs; cited from earlier work.
Setting [9] is: NF1^NS/+ Schwann cells, 100 μg/mL, 48 h.

Read-outs that look alike come from different tables or passages of the source.

Regarding `CN[C@@H]1[C@@H](O)[C@@H](O[C@@H]2[C@@H](O)[C@H](O[C@H]3O[C@H]([C@@H](C)O)[C@@H](O)[C@H](O)[C@H]3N)[C@@H](N)C[C@H]2N)OC[C@]1(C)O` [G418], in the data set with NF1^NS/− Schwann cells, the “nonsense suppression through expression of neurofibromin” value (“nonsense suppression through expression” below) is “no indication of nonsense suppression through expression of neurofibromin” and the “reduction in p-ERK” value was “not a corresponding reduction in p-ERK”. Moreover, in the data set with NF1^NS/+ Schwann cells (setting [9]), the neurofibromin result is “increased in all three replicates” and the p-ERK entry is recorded as “paradoxically increased”. Further, the “neurofibromin increase in NF1^NS/+ Schwann cell cultures” value in the data set on NF1^NS/+ Schwann cells is “not consistent between replicates or did not exhibit a dose- or time-dependent increase”. Besides, the “firefly luciferase activity compared with vehicle-treated cells” value in [1] was “significant and dose-dependent increase”. Besides, the “firefly luciferase activity compared with vehicle-treated cells” value in data set [2] was “significant and dose-dependent increase”.

`O=C(O)c1cccc(-c2noc(-c3ccccc3F)n2)c1` [ataluren]: in the data set with NF1^NS/− Schwann cells, the “nonsense suppression through expression” value is on record as “no indication of nonsense suppression through expression of neurofibromin” and the “reduction in p-ERK” value is reported as “not a corresponding reduction in p-ERK”.

What is called Cmax is the highest concentration seen after dosing. One may read the half-life as the time needed for the level to fall by half in the phase considered. Lower therefore signals fast loss. In the case of `CNC(C)C1CCC(N)C(OC2C(N)CC(N)C(OC3OCC(C)(O)C(NC)C3O)C2O)O1` (centres unmarked) [gentamicin], in the data set with NF1^NS/− Schwann cells, the “nonsense suppression through expression” value is “no indication of nonsense suppression through expression of neurofibromin”. The “reduction in p-ERK” value in the data set on NF1^NS/− Schwann cells is given as “not a corresponding reduction in p-ERK”. Besides, the “peak plasma concentration (Cmax)” value in [3] is 40000 to 60000 ng/mL. Besides, the “difference of mean tissue concentrations from cortex (lowest) to sciatic nerve (highest)” value in data set [4] was “up to 8 fold”. Moreover, the “neurofibromin protein expression in other tissues (cortex, sciatic nerve)” value in data set [5] was “no significant change”. Besides, in data set [5], the “p-ERK downregulation in tissues (optic nerve, cortex, sciatic nerve, skin)” value is listed as “not significant in any tissues”. Besides, the “neurofibromin protein expression in optic nerve tissue” value in data set [5] (p = 0.01) is “higher”. Besides, the Cmax is 20000 to 40000 ng/mL in data set [6]; 38000 ng/mL in the data set “in vivo” (NF1 minipig, 8.25 mg/kg, Cmax); 38000 ng/mL in “in vivo” (Ossabaw, minipig, 8.25 mg/kg, mean Cmax); 40000 ng/mL in the data set “in vivo” (Ossabaw, minipig, 8.25 mg/kg, target Cmax reached). Besides, in the data set on NF1^NS/+ Schwann cells (NF1^NS/+ Schwann cells, 250 or 500 μg/mL, 48 h, not replicated in other cultures), the “neurofibromin, dose trend” value is reported as “linear increase in neurofibromin at 48 h in one replicate”. Also, the “neurofibromin increase in NF1^NS/+ Schwann cell cultures” value with NF1^NS/+ Schwann cells is “not consistent between replicates or did not exhibit a dose- or time-dependent increase”. In data set [7], the “tolerability, renal parameters including serum creatinine and blood urea nitrogen” value was “well tolerated with no significant changes in renal parameters”. The molecule also gave a half-life in “in vivo” (NF1 minipig, 8.25 mg/kg, t1/2) of 1.82 h. The “changes in PK parameters after 14 days” value in “in vivo” (minipig) is reported as “no significant changes in PK parameters”.

On to `Cn1cnc2c(F)c(Nc3ccc(Br)cc3Cl)c(C(=O)NOCCO)cc21` [selumetinib], for which the “concentration in the brain” value in [8] is “reaches higher concentrations in the brain of NF1 minipigs compared with WT minipigs”.
